Test results reported in US20240018153A1, “BENZENESULFONAMIDE DERIVATIVES AND USES THEREOF” (2692372 ONTARIO, INC., priority 2020, published 2024).

Tests used:
BTK = BTK (Homo sapiens (Human), UniProt Q06187); experiment: Time-dependent inhibition of BTK (HTRF); format: biochemical; conditions: pre-incubation 0-45 min; for Time-dependent inhibition of BTK: product formation versus pre-incubation time: mono-exponential decay fit
Procedure: For the time-dependent inhibition experiments, the activity of BTK kinases was monitored using a HTRF® KinEASE-TK kit from Cisbio (62TK0PEC) as described above. […] The pre incubation times were 0, 1, 3, 5, 10, 15, 30 and 45 min. After the preincubation, reaction was initiated by adding biotinylated substrate and ATP and the reaction was allowed to proceed for 45 min. […] After 60 min of incubation, the fluorescence emission was measured at 620 nm and 665 nm. The ratio of Em 665 nm to Em 620 nm was proportional to the amount of substrate phosphorylated by the kinase. Product formation vs pre-incubation time data were fitted to a one phase exponential decay equation using GraphPad Prism. The same product formation vs inhibitor concentration data were also fitted to a log(antagonist) vs. response—Variable slope equation in GraphPad Prism to provide IC50 values at different pre incubation times.

EGFR = EGFR (Homo sapiens (Human), UniProt P00533); experiment: Time-dependent inhibition of EGFR (HTRF); format: biochemical; conditions: pre-incubation 0-60 min; for Time-dependent inhibition of EGFR: product formation versus pre-incubation time: mono-exponential decay fit
Procedure: For the time-dependent inhibition experiments, the activity of EGFR kinase was monitored using a HTRF® KinEASE-TK kit from Cisbio (62TK0PEC) as described above. Six compounds showing higher potency during dose response analysis against EGFR, were further evaluated for their change in inhibitory potency over time. Ibrutinib was used as a positive control. The selected compounds were pre incubated with the kinase at 11 different concentrations, ranging from […] to 25 uM final compound concentrations. The pre incubation times were 0, 2, 5, 10, 15, 30, 45 and 60 min. After the preincubation, the reaction was initiated by adding biotinylated substrate and ATP and the reaction was allowed to proceed for 45 min. […] The reaction was terminated by adding 31.25 nM SA-XL665 and 100 fold diluted europium labelled antibody (Eu-Ab), diluted in 1× detection buffer that contained EDTA. After 60 min of incubation, the fluorescence emission was measured at 620 nm and 665 nm. The ratio of Em 665 nm to Em 620 nm was proportional to the amount of substrate phosphorylated by the kinase. Product formation vs pre-incubation time data were fitted to a one phase exponential decay equation using GraphPad Prism. The same product formation vs inhibitor concentration data were also fitted to a log(antagonist) vs. response—Variable slope equation in GraphPad Prism to provide IC50 values at different pre incubation times.

[1] = molecular target: His-tagged BTK protein (SEQ ID NO: 1) (Homo sapiens (Human), UniProt Q06187); experiment: Intact mass analysis (LC-MS/MS) of covalent modification; format: binding; conditions: His-tagged BTK (unmodified 32,650 Da) incubated with compound
Procedure: The covalent modification of the proteins with the compounds were evaluated using intact mass analysis by liquid chromatography-mass spectrometry instrument (LC-MS/MS).
The reaction solution (20 μL) was prepared in 96-well plate and contained the protein (2 μM), the compound (100 μM), HEPES buffer (20 mM, pH 8), 2% DMSO, 2% glycerol, and 150 mM NaCl. The reaction was allowed to proceed for 24 h at 25° C. The reaction solution (1 μL) was injected into the LC/MS/MS without any further sample preparation.
The LC-MS/MS instrument comprises of a Waters G2-XS quadrupole-time of flight (QTof) mass spectrometer and a Waters Acuity I-class Ultra-High Performance Liquid Chromatography (UPLC) system. The I-class UPLC system includes a binary solvent manager (BSM), and a Acquity sample manager (SM). The mobile phase consisted of: A) 0.1% (v/v) formic acid in MilliQ water; B) 0.1% (v/v) formic acid acetonitrile. Gradients were run over 5 min and proceeded as follows: A:B, 85:15, 0.0-0.7 min, 85:15→15:85, 0.7-1.5 min, 10:90, 1.5-4 min, 10:90→85:15, 4-4.5 min, 85:15, 4.5-5 min. The analytical column was a Waters BEH C4 column 1.7 μm (50×1 mm) column with pore sizes of […]. The TOF MS data was collected in positive ion mode (m/z of 400-2000 Da) using MassLynx software (Waters).
The spectral deconvolution was performed using UNIFI software (Waters). The added mass of the protein upon covalent modification to cysteine residues were specified. Multiple modification of up to 8 cysteine was allowed. All the adducts with signal intensities of <2% of the base peak were ignored. The % modification was calculated as the adduct signal intensity over the total intensities of the protein peaks and the adducts.

Chain of BTK (Q06187 whole entry): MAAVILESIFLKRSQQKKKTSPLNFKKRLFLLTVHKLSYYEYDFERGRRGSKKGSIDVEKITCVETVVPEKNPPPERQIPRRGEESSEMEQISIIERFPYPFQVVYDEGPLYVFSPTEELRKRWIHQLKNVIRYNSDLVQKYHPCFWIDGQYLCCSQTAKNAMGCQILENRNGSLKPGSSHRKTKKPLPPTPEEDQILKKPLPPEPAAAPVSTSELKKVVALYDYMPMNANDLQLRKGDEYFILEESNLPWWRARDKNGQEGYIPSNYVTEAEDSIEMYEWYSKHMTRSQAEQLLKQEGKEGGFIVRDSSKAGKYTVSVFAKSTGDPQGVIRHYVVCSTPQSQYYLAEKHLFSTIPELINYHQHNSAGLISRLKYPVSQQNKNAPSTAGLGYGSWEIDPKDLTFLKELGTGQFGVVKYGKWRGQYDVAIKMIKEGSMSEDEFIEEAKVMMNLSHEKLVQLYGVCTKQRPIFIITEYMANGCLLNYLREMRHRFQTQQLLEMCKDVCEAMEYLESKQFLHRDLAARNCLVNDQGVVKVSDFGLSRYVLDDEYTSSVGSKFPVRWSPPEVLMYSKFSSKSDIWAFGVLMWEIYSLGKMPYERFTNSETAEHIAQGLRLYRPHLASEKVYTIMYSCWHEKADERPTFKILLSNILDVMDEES
Chain of EGFR (P00533 25-1210): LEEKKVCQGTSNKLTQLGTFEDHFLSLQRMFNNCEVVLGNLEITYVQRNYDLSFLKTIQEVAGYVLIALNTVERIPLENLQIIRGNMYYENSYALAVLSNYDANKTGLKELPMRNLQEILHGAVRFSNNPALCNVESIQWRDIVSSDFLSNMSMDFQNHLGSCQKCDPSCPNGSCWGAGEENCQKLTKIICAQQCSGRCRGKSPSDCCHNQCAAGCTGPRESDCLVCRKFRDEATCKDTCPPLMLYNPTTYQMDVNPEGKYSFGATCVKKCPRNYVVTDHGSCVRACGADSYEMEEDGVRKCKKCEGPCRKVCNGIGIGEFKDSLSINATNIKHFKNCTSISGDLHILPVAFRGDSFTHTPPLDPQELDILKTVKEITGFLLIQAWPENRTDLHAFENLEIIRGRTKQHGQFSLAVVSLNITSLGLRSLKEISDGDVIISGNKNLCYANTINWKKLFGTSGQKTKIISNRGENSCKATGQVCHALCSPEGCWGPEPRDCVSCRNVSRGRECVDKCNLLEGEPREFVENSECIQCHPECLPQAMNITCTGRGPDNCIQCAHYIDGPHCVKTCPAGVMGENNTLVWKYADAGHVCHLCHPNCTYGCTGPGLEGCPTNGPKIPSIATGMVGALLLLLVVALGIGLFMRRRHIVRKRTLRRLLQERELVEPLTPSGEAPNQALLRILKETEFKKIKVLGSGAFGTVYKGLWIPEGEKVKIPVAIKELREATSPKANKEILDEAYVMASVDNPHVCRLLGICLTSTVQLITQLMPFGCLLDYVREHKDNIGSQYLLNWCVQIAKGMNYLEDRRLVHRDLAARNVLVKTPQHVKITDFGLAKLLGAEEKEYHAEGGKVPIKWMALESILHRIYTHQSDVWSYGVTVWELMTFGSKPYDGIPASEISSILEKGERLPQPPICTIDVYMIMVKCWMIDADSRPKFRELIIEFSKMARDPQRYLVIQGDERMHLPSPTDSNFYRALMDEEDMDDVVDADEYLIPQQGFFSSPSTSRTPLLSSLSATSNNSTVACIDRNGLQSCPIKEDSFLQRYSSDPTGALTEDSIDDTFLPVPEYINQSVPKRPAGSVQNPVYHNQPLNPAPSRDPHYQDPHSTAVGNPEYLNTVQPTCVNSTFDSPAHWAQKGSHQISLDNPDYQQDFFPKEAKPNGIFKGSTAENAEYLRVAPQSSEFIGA
Chain of His-tagged BTK protein (SEQ ID NO: 1) (Q06187 other isoform, or with tags, fused parts or gaps): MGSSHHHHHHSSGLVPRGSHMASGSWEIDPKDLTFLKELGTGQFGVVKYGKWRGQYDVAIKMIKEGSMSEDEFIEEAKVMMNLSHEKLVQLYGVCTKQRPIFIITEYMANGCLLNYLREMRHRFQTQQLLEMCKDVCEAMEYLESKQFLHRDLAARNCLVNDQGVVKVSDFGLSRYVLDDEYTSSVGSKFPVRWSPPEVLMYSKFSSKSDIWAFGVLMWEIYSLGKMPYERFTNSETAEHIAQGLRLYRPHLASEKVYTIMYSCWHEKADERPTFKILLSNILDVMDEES

SMILES	Time-dependent inhibition of BTK: product formation versus pre-incubation time (BTK)	Time-dependent inhibition of BTK: IC50 values versus pre-incubation time (BTK)	Time-dependent inhibition of EGFR: product formation versus pre-incubation time (EGFR)	Time-dependent inhibition of EGFR: IC50 values versus pre-incubation time (EGFR)	covalent adduct mass (intact mass analysis, modification by one molecule) [1]
C[S@+]([O-])c1c(F)c(F)c(F)c(F)c1C(=O)N1CC(n2nc(-c3ccc(Oc4ccccc4)cc3)c3c(N)ncnc32)C1 (racemic) [Compound I-37, (3-(4-amino-3-(4-phenoxyphenyl)-1H-pyrazolo[3,4-d]pyrimidin-1-yl)azetidin-1-yl)(2,3,4,5-tetrafluoro-6-(methylsulfinyl)phenyl)methanone]	concentration-dependent first order loss of enzyme activity	decrease as pre-incubation times increase	concentration-dependent first order loss of enzyme activity	decrease as pre-incubation times increase	–
CS(=O)(=O)c1c(F)c(F)c(F)c(F)c1Nc1cc2c(Nc3ccc(F)c(Cl)c3)ncnc2cc1O[C@H]1CCOC1 [Compound I-2, (S)—N^4-(3-chloro-4-fluorophenyl)-N^6-(2,3,4,5-tetrafluoro-6-(methylsulfonyl)phenyl)-7-((tetrahydrofuran-3-yl)oxy)quinazoline-4,6-diamine]	–	–	concentration-dependent first order loss of enzyme activity	decrease as pre-incubation times increase	–
C[S+]([O-])c1c(F)c(F)c(F)c(F)c1C(=O)Nc1cc2c(Nc3ccc(F)c(Cl)c3)ncnc2cc1OC1CCOC1 (stereo not shown) [Compound I-3]	–	–	concentration-dependent first order loss of enzyme activity	decrease as pre-incubation times increase	–
C[S+]([O-])c1c(F)c(F)c(F)c(F)c1Nc1cc2c(Nc3ccc(F)c(Cl)c3)ncnc2cc1O[C@H]1CCOC1 (stereo partly drawn) [Compound I-4, N^4-(3-chloro-4-fluorophenyl)-N^6-(2,3,4,5-tetrafluoro-6-(methylsulfinyl)phenyl)-7-(((S)-tetrahydrofuran-3-yl)oxy)quinazoline-4,6-diamine]	–	–	concentration-dependent first order loss of enzyme activity	decrease as pre-incubation times increase	–
Nc1ncnc2c1c(-c1ccc(Oc3ccccc3)cc1)nn2[C@@H]1CCN(S(=O)(=O)c2c(F)c(F)c(F)c(F)c2OCF)C1 [Compound I-24, (R)-3-(4-phenoxyphenyl)-1-(1-((2,3,4,5-tetrafluoro-6-(fluoromethoxy)phenyl)sulfonyl)pyrrolidin-3-yl)-1H-pyrazolo[3,4-d]pyrimidin-4-amine]	–	–	–	–	33,263 Da
CN(CCn1nc(-c2ccc(Oc3ccccc3)cc2)c2c(N)ncnc21)C(=O)c1c(F)c(F)c(F)c(F)c1S(N)(=O)=O [Compound I-33, N-(2-(4-amino-3-(4-phenoxyphenyl)-1H-pyrazolo[3,4-d]pyrimidin-1-yl)ethyl)-2,3,4,5-tetrafluoro-N-methyl-6-sulfamoylbenzamide]	concentration-dependent first order loss of enzyme activity	decrease as pre-incubation times increase	–	–	–
Nc1ncnc2c1c(-c1ccc(Oc3ccccc3)cc1)nn2CCCNC(=O)c1c(F)c(F)c(F)c(F)c1S(N)(=O)=O [Compound I-34, N-(3-(4-amino-3-(4-phenoxyphenyl)-1H-pyrazolo[3,4-d]pyrimidin-1-yl)propyl)-2,3,4,5-tetrafluoro-6-sulfamoylbenzamide]	concentration-dependent first order loss of enzyme activity	decrease as pre-incubation times increase	–	–	–
CS(=O)(=O)c1c(F)c(F)c(F)c(F)c1C(=O)NCCn1nc(-c2ccc(Oc3ccccc3)cc2)c2c(N)ncnc21 [Compound I-38, N-(2-(4-amino-3-(4-phenoxyphenyl)-1H-pyrazolo[3,4-d]pyrimidin-1-yl)ethyl)-2,3,4,5-tetrafluoro-6-(methylsulfonyl)benzamide]	concentration-dependent first order loss of enzyme activity	decrease as pre-incubation times increase	–	–	–
CN(C)S(=O)(=O)c1c(F)c(F)c(F)c(F)c1C(=O)NCCn1nc(-c2ccc(Oc3ccccc3)cc2)c2c(N)ncnc21 [Compound I-40, N-(2-(4-amino-3-(4-phenoxyphenyl)-1H-pyrazolo[3,4-d]pyrimidin-1-yl)ethyl)-2-(N,N-dimethylsulfamoyl)-3,4,5,6-tetrafluorobenzamide]	concentration-dependent first order loss of enzyme activity	decrease as pre-incubation times increase	–	–	–
